Results on 18 compounds are retold here after patent US11253517B2, “Small molecule regulators of steroid receptor coactivators and methods of use thereof” (BAYLOR COLLEGE OF MEDICINE, priority 2016, dated 2022).

Format in all cases: cell-based
The test system of one assay is MCF-7 cells. The experiment in a line: IC50 in MCF-7 cells, 72 hours incubation. The conditions noted are these: Homo sapiens, MCF7. Here is the method: (§1) The compounds described herein were synthesized as described in Example 1. The IC50 values were measured in MDA-MB-468, BT-474, and MCF-7 cells by incubating a series of concentrations of the corresponding compounds for 72 hours.
(§2) In Tables 1 and 2, “−” represents IC50 or EC50 values greater than 10 μM; “+” represents IC50 or EC50 values from greater than 1 μM to 10 μM; “++” represents IC50 or EC50 values from 0.1 μM to 1 μM; and “+++” represents IC50 or EC50 values less than 0.1 μM.

Another assay concerns BT-474 cells. Nature of the assay: IC50 in BT-474 cells, 72 hours incubation. The conditions noted are these: Homo sapiens. Here is the method: as §1, §2
In another assay the target is T1, SRC-3 (Homo sapiens, UniProt Q9Y6Q9).
T1 construct: expressed in transfected cells; host or cells: HeLa
The experiment in a line: SRC-3 intrinsic transcriptional activity luciferase assay in HeLa cells. Particulars: pG5-LUC reporter with pBIND-SRC-3, 24 hours. Here is the method: Luciferase assays were performed in HeLa cells transiently transfected with the reporter vector pG5-LUC in combination with expression vectors for pBIND and pBIND-SRC-3 before incubation with the compound for 24 hours. In FIG. 1, the first histogram bar in each set represents pBIND; the second histogram bar in each set represents SRC-1; the third histogram bar in each set represents SRC-2; and the fourth histogram bar in each set represents SRC-3.
Intrinsic transcriptional activity assays were conducted as for FIG. 1. In FIG. 2, the left histogram bar in each set represents pBIND and the right histogram bar in each set represents pBIND-SRC3.
The effects of the SI compounds described herein on the intrinsic transcriptional activities of SRC-1, SRC-2 and SRC-3 were investigated. HeLa cells were transiently transfected with a pGL5-LUC reporter and expression vectors for pBIND and pBIND-SRC-1, pBIND-SRC-2, pBIND-SRC-3, followed by 24 hours of treatment with different concentrations of SI compounds. Compounds as described herein, including SI-9, SI-10, SI-11, SI-12, SI-14, SI-15, SI-16, SI-17, SI-19, SI-20, and SI-21, were tested for their ability to inhibit the intrinsic transcriptional activity of SRC-1, SRC-2 and SRC-3 in FIG. 1.

The test system of assay [1] is MDA-MB-468 cells. Nature of the assay: IC50 in MDA-MB-468 cells, 72 hours incubation. The conditions noted are these: Homo sapiens. Here is the method:
as §1, §2

The subject of assay [2] is MDA-MB-468 cells. Nature of the assay: EC50 in MDA-MB-468 cells, 72 hours incubation. The conditions noted are these: Homo sapiens. Here is the method: The EC50 values of certain compounds were measured in MDA-MB-468 cells by incubating a series of concentrations of the corresponding compounds for 72 hours.
as §2

T1 sequence (Q9Y6Q9 whole entry): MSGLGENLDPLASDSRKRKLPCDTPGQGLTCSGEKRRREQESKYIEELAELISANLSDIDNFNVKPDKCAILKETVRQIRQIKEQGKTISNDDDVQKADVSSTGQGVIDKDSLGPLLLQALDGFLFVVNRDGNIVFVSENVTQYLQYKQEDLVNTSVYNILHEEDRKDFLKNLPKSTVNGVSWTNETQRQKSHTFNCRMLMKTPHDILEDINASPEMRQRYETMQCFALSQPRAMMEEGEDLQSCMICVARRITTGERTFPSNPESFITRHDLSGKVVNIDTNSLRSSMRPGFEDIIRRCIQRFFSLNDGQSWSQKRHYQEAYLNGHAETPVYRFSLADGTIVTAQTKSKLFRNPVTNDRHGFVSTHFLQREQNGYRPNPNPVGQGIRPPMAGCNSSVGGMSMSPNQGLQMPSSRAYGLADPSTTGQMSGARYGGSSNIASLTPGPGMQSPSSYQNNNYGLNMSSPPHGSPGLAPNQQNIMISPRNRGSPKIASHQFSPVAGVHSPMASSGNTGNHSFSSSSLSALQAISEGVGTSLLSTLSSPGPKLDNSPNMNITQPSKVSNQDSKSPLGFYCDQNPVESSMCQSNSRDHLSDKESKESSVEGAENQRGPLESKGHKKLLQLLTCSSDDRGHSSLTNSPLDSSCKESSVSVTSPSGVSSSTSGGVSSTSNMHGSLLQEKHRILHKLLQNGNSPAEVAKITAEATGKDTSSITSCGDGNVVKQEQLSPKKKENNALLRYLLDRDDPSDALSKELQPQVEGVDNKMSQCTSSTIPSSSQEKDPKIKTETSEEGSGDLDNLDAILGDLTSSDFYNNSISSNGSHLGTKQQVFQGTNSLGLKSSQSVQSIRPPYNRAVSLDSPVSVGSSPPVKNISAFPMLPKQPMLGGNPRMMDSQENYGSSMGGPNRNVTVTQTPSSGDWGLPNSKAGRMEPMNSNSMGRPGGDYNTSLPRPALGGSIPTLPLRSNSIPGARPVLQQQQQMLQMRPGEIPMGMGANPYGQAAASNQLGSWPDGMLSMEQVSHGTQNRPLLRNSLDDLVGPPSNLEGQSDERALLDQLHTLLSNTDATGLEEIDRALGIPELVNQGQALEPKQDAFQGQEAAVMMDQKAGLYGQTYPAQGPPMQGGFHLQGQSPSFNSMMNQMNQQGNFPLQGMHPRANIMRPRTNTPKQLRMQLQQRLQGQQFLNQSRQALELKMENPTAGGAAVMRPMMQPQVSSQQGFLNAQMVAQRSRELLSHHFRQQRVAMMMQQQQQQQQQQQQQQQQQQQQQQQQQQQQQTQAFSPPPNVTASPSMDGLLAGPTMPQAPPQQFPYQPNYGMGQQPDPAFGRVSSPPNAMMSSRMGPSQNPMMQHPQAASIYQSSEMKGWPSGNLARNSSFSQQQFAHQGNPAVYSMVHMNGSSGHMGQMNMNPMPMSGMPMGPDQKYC

`C/C(=N\Nc1nc2ccccc2n1C)c1ncccn1` [SI-19]: the half-maximal inhibitory concentration (IC50) with MCF-7 cells and with BT-474 cells was < 100 nM in each case.
On to `C/C(=N\Nc1nc2ccccc2n1C)c1ccc(F)cn1` [SI-21], for which the 50% inhibitory concentration (IC50) in the assay with MCF-7 cells and with BT-474 cells was < 100 nM in each case.
As for `C/C(=N\Nc1nc2cc(F)c(F)cc2n1C)c1ccncn1` [SI-11], the IC50 in the assay with MCF-7 cells and in the assay on BT-474 cells was < 100 nM each time.
Turning to `C/C(=N\Nc1nc2ccccc2n1C)c1cccs1` [SI-8], the “effect on SRC-3 intrinsic activity” value at SRC-3 is recorded as “able to stimulate SRC-3 intrinsic activity at certain doses”.
For `C/C(=N\Nc1nc2ccccc2n1C)c1nccs1` [SI-6], in the assay with MDA-MB-468 cells [1], the IC50 – broadly, the point on the concentration scale where inhibition reaches its midpoint – lay in the range of 100 to 1000 nM. Besides, the “effect on SRC-3 intrinsic activity” value at SRC-3 was “able to stimulate SRC-3 intrinsic activity at certain doses”.
With `C/C(=N\Nc1nc2ccccc2n1C)c1nccn1C` [SI-4], the “effect on SRC-3 intrinsic activity” value on SRC-3 is reported as “able to stimulate SRC-3 intrinsic activity at certain doses”.
In the case of `C/C(=N\Nc1nc2cc(F)c(F)cc2n1C)c1ccccn1` [SI-9], the half-maximal inhibitory concentration (IC50) in the assay on BT-474 cells is < 100 nM.
Turning to `C/C(=N\Nc1nc2cc(F)ccc2n1C)c1ncccn1` [SI-15], the IC50 in the assay with MCF-7 cells and with BT-474 cells was < 100 nM in each case.
With `C/C(=N\Nc1nc2ccccc2n1C)c1ccncn1` [SI-20], the IC50 with MCF-7 cells and in the assay with BT-474 cells was < 100 nM throughout.
On to `C/C(=N\Nc1nc2cc(F)ccc2n1C)c1ccncn1` [SI-16], for which the concentration for half-maximal inhibition (IC50) in the assay with MCF-7 cells and in the assay on BT-474 cells was < 100 nM throughout.
For `C/C(=N\Nc1nc2ccccc2n1C)c1ncccc1Br` [SI-E-01P], the EC50 (usually the concentration that produces a half-maximal response) in the assay with MDA-MB-468 cells [2] lay within 100 to 1000 nM.
The same measure, in the same setting: the same measure for `Cn1c(NNC(=O)c2ccccn2)nc2ccccc21` [SI-C-01]: 100 to 1000 nM.
For `C/C(=N\Nc1nc2ccccc2n1C)c1ncco1` [SI-5], the “effect on SRC-3 intrinsic activity” value at SRC-3 was “able to stimulate SRC-3 intrinsic activity at certain doses”.
Regarding `C/C(=N\Nc1nc2cc(F)ccc2n1C)c1ccc(F)cn1` [SI-17], the half-maximal inhibitory concentration (IC50) in the assay on MCF-7 cells and in the assay with BT-474 cells was < 100 nM in each case.
As to `C/C(=N\Nc1nc2cc(F)ccc2n1C)c1ccccn1` [SI-14], the half-inhibitory concentration (IC50) in the assay on MCF-7 cells and with BT-474 cells was < 100 nM throughout.
Turning to `C/C(=N\Nc1nc2cc(F)c(F)cc2n1C)c1ncccn1` [SI-10], the IC50 in the assay with MCF-7 cells and in the assay with BT-474 cells was < 100 nM each time.
For the compound `C/C(=N\Nc1nc2ccccc2n1C)c1ccco1` [SI-7], at SRC-3, the “effect on SRC-3 intrinsic activity” value was “able to stimulate SRC-3 intrinsic activity at certain doses”.
As to `C/C(=N\Nc1nc2ccccc2n1C)c1ccc[nH]1` [SI-3], on SRC-3, the “effect on SRC-3 intrinsic activity” value is “able to stimulate SRC-3 intrinsic activity at certain doses”.
